pIC50: −log10 of the molar value.
Tests used:
CDK1/Cyclin B1 = CDK1/Cyclin B1 (Homo sapiens (Human), UniProt P06493); assay: CDK1/Cyclin B1 ADP-Glo Kinase Assay; assay type: biochemical; conditions: ADP-Glo, 80 uM ATP; read-out: CDK1 Cyclin B1 IC50
Experimental: CDK1/Cyclin B1 ADP-Glo Kinase Assay
(§1) The purpose of CDK1/Cyclin B1 assay is to evaluate the inhibition (% inhibition and IC50 values) of small molecule inhibitors by using a Luminescent based ADP-Glo assay. CDK1/Cyclin B1 catalyzes the production of ADP from ATP. ADP-Glo assay monitors ADP producing biochemical reactions. ADP-Glo is performed in 2 steps upon completion of kinase reaction: a combined termination of kinase reaction and depletion of remaining ATP in the first step, and conversion of generated ADP to ATP and the newly produced ATP to light output using luciferase/luciferin reaction in the second step. The luminescent signal generated is proportional to the ADP concentration produced and is correlated with the kinase activity. CDK1/Cyclin B1 was purchased from Carna (Cat 04-102). […] The assay was initiated with the addition of ATP-containing substrate solution, following a 30-minute pre-incubation of enzyme and inhibitor at room temperature in the reaction mixture. The reaction was stopped after 90 minutes at room temperature by the addition of 10 uL of ADP-GLO Reagent. After a 90 minute incubation, 20 uL of Kinase Detection Reagent was added. Samples were incubated for 40 minutes, after which plate well luminescence was measured on a Envision microplate reader. The IC50 determinations were made from a plot of the fractional velocity as a function of inhibitor concentration fit to the 4 parameters IC50 equation.

CDK2/Cyclin E1 = CDK2/Cyclin E1 (Homo sapiens (Human), UniProt P24941); assay: CDK2/Cyclin E1 Full length ADP-Glo Kinase Assay; assay type: biochemical; conditions: 20 uM ATP, read-out: CDK2/ CyclinE1 IC50
Experimental: CDK2/Cyclin E1 Full length ADP-Glo Kinase Assay
as §1, with “of CDK2/Cyclin E1” for “of CDK1/Cyclin B1”, “assay. CDK2/Cyclin E1 full length” for “assay. CDK1/Cyclin B1”, “activity. CDK2/Cyclin E1” for “activity. CDK1/Cyclin B1”, “from Eurofins” for “from Carna”, “(Cat 14-475M).” for “(Cat 04-102).”

CDK4/Cyclin D1 = CDK4/Cyclin D1 (Homo sapiens (Human), UniProt P11802); assay: CDK4/Cyclin D1 CHEF Assay (AQT0258 peptide); assay type: biochemical; conditions: 200 uM ATP, read-out: CDK4/ CyclinD1 AQT IC50
CDK4/Cyclin D1, sequence (P11802 whole entry): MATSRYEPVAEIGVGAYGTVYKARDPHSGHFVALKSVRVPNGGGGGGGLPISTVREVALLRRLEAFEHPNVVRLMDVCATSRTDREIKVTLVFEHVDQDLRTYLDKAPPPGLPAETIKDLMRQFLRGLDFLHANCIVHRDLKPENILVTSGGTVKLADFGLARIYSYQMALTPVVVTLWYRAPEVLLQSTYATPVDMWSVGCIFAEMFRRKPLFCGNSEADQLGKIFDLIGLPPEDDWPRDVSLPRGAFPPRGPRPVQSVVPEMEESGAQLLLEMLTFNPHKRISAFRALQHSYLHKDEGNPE
CDK4/Cyclin D1, sequence (P24385 whole entry partner): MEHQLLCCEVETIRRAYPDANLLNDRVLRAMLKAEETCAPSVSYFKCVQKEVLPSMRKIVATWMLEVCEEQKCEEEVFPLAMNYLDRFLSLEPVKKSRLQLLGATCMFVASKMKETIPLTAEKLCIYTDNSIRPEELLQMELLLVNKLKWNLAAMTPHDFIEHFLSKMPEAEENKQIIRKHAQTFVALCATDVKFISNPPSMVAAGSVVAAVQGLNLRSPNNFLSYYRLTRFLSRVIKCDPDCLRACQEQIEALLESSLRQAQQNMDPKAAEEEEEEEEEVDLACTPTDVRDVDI
Excerpt: CDK4/Cyclin D1 CHEF Assay
The purpose of CDK4/Cyclin D1 assay is to evaluate the inhibition (% inhibition and IC50 values) of small molecule inhibitors by using a Chelation-Enhance Fluorescence (CHEF) assay. In a CHEF assay, phosphorylation of a peptide substrate results in proportional increase in fluorescence. CHEF kinase assay use peptide substrates containing a synthetic alpha-amino acid with a side chain bearing an 8-hydroxyquinoline derivative (sulfonamido-oxide, Sox). Upon phosphorylation of a nearby serine, threonine or tyrosine and in the presence of Mg(II), the spectral properties of the Sox residue are altered, emitting 485 nm wavelength light when excited with a 360 nm wavelength light source. CDK4/Cyclin D1 catalyzes the phosphoryl transfer to the SOX-labeled substrate peptide AQT0258 from Assayquant Technologies. […] The reaction was initiated with the addition of substrate solution, following a 30-minute pre-incubation of enzyme and inhibitor at 22° C. in the reaction mix. Reactions were allowed to proceed for 3 hrs at 22° C., followed by fluorescence read of the reaction. The IC50 determinations were made from a plot of the fractional velocity as a function of inhibitor concentration fit to the 4 parameters IC50 equation.

CDK6/Cyclin D3 = CDK6/Cyclin D3 (Homo sapiens (Human), UniProt Q00534); assay: CDK6/Cyclin D3 ADP-Glo Kinase Assay; assay type: biochemical; conditions: 100 uM ATP, read-out: CDK6/ CyclinD3 IC50
CDK6/Cyclin D3, sequence (Q00534 whole entry): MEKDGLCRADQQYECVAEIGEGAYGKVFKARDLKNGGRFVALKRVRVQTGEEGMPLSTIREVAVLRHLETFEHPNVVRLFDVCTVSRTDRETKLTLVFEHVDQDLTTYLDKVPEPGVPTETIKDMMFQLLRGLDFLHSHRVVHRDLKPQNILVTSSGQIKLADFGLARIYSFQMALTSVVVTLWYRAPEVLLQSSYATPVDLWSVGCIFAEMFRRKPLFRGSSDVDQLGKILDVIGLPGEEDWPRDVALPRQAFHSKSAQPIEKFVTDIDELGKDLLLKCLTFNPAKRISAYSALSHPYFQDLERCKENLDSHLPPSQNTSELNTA
CDK6/Cyclin D3, sequence (P30281 whole entry partner): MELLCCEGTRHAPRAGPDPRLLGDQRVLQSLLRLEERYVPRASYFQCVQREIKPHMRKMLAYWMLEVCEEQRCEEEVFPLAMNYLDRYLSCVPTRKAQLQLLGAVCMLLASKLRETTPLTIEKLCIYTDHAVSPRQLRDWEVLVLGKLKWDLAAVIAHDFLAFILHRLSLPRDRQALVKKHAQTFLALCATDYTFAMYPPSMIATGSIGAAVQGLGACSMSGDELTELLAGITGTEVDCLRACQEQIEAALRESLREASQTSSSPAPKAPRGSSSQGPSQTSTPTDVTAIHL
Experimental: CDK6/Cyclin D3 ADP-Glo Kinase Assay
The purpose of the CDK6/Cyclin D3 assay is to evaluate the inhibition (% inhibition and IC50 values) in the presence of small molecule inhibitors by using a Luminescent based ADP-Glo assay. CDK6/Cyclin D3 catalyzes the production of ADP from ATP. ADP-Glo assay monitors ADP producing biochemical reactions. ADP-Glo is performed in 2 steps upon completion of kinase reaction: a combined termination of kinase reaction and depletion of remaining ATP in the first step, and conversion of generated ADP to […] and the newly produced ATP to light output using luciferase/luciferin reaction in the second step. The luminescent signal generated is proportional to the ADP concentration produced and is correlated with the kinase activity CDK6/Cyclin D3 was purchased from Carna. […] The assay was initiated with the addition of ATP-containing substrate solution, following a 30-minute pre-incubation of enzyme and inhibitor at room temperature in the reaction mixture. The reaction was stopped after 90 minutes at room temperature by the addition of 10 uL of ADP-GLO Reagent. After a 90-minute incubation, 20 uL of Kinase Detection Reagent was added. Samples were incubated for 40 minutes, after which plate well luminescence was measured on a Envision microplate reader. The IC50 determinations were made from a plot of the fractional velocity as a function of inhibitor concentration fit to the 4 parameters IC50 equation.

MCF-7 cells = assay: Cell Growth Inhibition, MCF-7 (CellTiterGlo, 6 days); assay type: cell-based; conditions: Homo sapiens, MCF7, 144 h, MCF-7, 6-day treatment
Excerpt: (§2) MCF-7 and OVCAR-3 cells were used to evaluate the anti-proliferation activity of the CDK inhibitors. MCF-7 (ATCC, HTB-22) cells are epithelial cells from a patient with ER+ metastatic adenocarcinoma. OVCAR-3 (ATCC, HTB-161) cells were derived from malignant ascites of a patient with ovarian cancer and are known to have CCNE1 amplification. Both cell lines were maintained in RPMI media supplemented with 10% fetal bovine serum. For cell growth inhibition assay, CDK inhibitors in DMSO solution were dispensed with either Echo 655 (Beckman Coulter) or Tecan D300e (HP) into 384-well plates (Corning #3765) and the 384-well plates were UV-sterilized prior to the assay. The inhibitors were typically tested in the 10-10,000 nM concentration range with half-log serial dilutions. MCF-7 or OVCAR-3 (500 cells/30 μL/well) were added to each well using Multidrop Combi (ThermoFisher) using standard cassettes. The assay plates with cells were cultured at 37° C., 5% CO2 for 6 days. At the end of the 6-day treatment, 30 μL of CellTiterGlo 2.0 (Promega) was added to each well and the luminescent signal was read using CLARIOstar plus (BMG). The percentage of cell growth inhibition (% CGI) was calculated using the following formula 00 CGI=100-100×luminescencesampie/luminescencecontroi. The half maximal inhibitory concentration (IC50) was determined by nonlinear curve fitting (four parameters, variable slope).

OVCAR-3 cells = assay: Cell Growth Inhibition, OVCAR-3 (CellTiterGlo, 6 days); assay type: cell-based; conditions: Homo sapiens, 144 h, OVCAR-3, 6-day treatment
Excerpt: as §2

CDK1/Cyclin B1, sequence (P06493 whole entry): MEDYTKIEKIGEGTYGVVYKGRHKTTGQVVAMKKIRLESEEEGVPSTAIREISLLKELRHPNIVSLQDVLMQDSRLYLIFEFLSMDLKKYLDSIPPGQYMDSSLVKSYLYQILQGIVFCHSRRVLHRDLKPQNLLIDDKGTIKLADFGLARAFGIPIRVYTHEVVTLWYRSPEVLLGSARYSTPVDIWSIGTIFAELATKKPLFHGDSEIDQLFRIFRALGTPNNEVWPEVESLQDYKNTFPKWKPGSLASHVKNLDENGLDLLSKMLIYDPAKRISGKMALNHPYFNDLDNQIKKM
CDK1/Cyclin B1, sequence (P14635 whole entry partner): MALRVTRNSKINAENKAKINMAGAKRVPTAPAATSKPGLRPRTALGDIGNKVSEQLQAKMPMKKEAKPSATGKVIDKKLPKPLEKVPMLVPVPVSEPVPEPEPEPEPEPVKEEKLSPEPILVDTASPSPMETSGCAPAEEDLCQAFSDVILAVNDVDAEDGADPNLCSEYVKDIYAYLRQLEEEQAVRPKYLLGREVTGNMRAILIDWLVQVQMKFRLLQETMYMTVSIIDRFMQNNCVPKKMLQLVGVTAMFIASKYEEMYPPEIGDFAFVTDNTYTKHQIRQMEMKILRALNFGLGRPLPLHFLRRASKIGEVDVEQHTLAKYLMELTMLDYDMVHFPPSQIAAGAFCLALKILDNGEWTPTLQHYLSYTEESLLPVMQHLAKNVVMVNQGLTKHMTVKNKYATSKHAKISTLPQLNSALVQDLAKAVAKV

SMILES	pIC50 (CDK1/Cyclin B1)	pIC50 (CDK2/Cyclin E1)	pIC50 (CDK4/Cyclin D1)	pIC50 (CDK6/Cyclin D3)	pIC50 (MCF-7 cells)	pIC50 (OVCAR-3 cells)
CN1Cc2ccc(Nc3ncc4ccnc(N5CCC6(CCN(S(C)(=O)=O)C6)C5)c4n3)cc2C1 (stereo not drawn) [Compound 23, N-(2-methylisoindolin-5-yl)-8-(7-(methylsulfonyl)-2,7-diazaspiro[4.4]nonan-2-yl)pyrido[3,4-d]pyrimidin-2-amine]	5.70 to 6.30	> 6.70	> 6.70	> 6.70	> 6.70	> 6.70
CN1Cc2ccc(Nc3ncc4ccnc(N5CC6(C5)CS(=O)(=O)C6)c4n3)cc2C1 [Compound 24, 6-(2-((2-methylisoindolin-5-yl)amino)pyrido[3,4-d]pyrimidin-8-yl)-2-thia-6-azaspiro[3.3]heptane 2,2-dioxide]	5.70 to 6.30	> 6.70	> 6.70	> 6.70	5.70 to 6.30	5.70 to 6.30
Cc1cc2cnc(Nc3cnn(C4CC5(C4)CN(C)C5)c3)nc2c(N2CC3(C2)CN(S(C)(=O)=O)C3)n1 [Compound 26, 6-methyl-N-(1-(2-methyl-2-azaspiro[3.3]heptan-6-yl)-1H-pyrazol-4-yl)-8-(6-(methylsulfonyl)-2,6-diazaspiro[3.3]heptan-2-yl)pyrido[3,4-d]pyrimidin-2-amine]	< 5.70	6.30 to 6.70	6.30 to 6.70	5.70 to 6.30	< 5.70	< 5.70
Cc1cc2cnc(Nc3ccc4c(c3)CN(S(C)(=O)=O)C4)nc2c(N2CC3(CN(C)C3)C2)n1 [Compound 27, 6-methyl-8-(6-methyl-2,6-diazaspiro[3.3]heptan-2-yl)-N-(2-(methylsulfonyl)isoindolin-5-yl)pyrido[3,4-d]pyrimidin-2-amine]	5.70 to 6.30	> 6.70	5.70 to 6.30	5.70 to 6.30	< 5.70	5.70 to 6.30
Cc1cc2cnc(Nc3ccc(N4CC5(CN(C)C5)C4)cc3)nc2c(N2CCC(C#N)(C3CC3)C2)n1 (stereo not drawn) [Compound 28, 3-cyclopropyl-1-(6-methyl-2-((4-(6-methyl-2,6-diazaspiro[3.3]heptan-2-yl)phenyl)amino)pyrido[3,4-d]pyrimidin-8-yl)pyrrolidine-3-carbonitrile]	5.70 to 6.30	> 6.70	> 6.70	> 6.70	5.70 to 6.30	5.70 to 6.30
Cc1cc2cnc(Nc3ccc4c(c3)CN(C3CN(S(C)(=O)=O)C3)C4)nc2c(N2CC3(CN(C)C3)C2)n1 [Compound 29, 6-methyl-8-(6-methyl-2,6-diazaspiro[3.3]heptan-2-yl)-N-(2-(1-(methylsulfonyl)azetidin-3-yl)isoindolin-5-yl)pyrido[3,4-d]pyrimidin-2-amine]	< 5.70	6.30 to 6.70	> 6.70	5.70 to 6.30	< 5.70	< 5.70

Now from value to compound:

pIC50 (CDK1/Cyclin B1)	pIC50 (CDK2/Cyclin E1)	pIC50 (CDK4/Cyclin D1)	pIC50 (CDK6/Cyclin D3)	pIC50 (MCF-7 cells)	pIC50 (OVCAR-3 cells)	SMILES
6.30 to 6.70	> 6.70	> 6.70	> 6.70	–	–	Cc1cc2cnc(NC3CCN(S(C)(=O)=O)CC3)nc2c(N2CC3(CN(C)CC3(F)F)C2)n1 [Compound 101, 8-(8,8-difluoro-6-methyl-2,6-diazaspiro[3.4]octan-2-yl)-6-methyl-N-(1-(methylsulfonyl)piperidin-4-yl)pyrido[3,4-d]pyrimidin-2-amine]
> 6.70	> 6.70	> 6.70	> 6.70	–	–	Cc1cc2cnc(NC3CCN(S(=O)(=O)C4CC4)CC3)nc2c(N2CC(F)(F)C3(CN(C)C3)C2)n1 [Compound 102, N-(1-(cyclopropylsulfonyl)piperidin-4-yl)-8-(8,8-difluoro-2-methyl-2,6-diazaspiro[3.4]octan-6-yl)-6-methylpyrido[3,4-d]pyrimidin-2-amine]
> 6.70	> 6.70	> 6.70	> 6.70	–	–	[2H]C([2H])([2H])N1CC2(CN(c3nc(C)cc4cnc(NC5CCN(S(C)(=O)=O)CC5)nc34)CC2(F)F)C1 [Example 12, 8-(8,8-difluoro-2-(methyl-d3)-2,6-diazaspiro[3.4]octan-6-yl)-6-methyl-N-(1-(methylsulfonyl)piperidin-4-yl)pyrido [3,4-d]pyrimidin-2-amine]
> 6.70	–	> 6.70	> 6.70	5.70 to 6.30	5.70 to 6.30	O=S(=O)(C1CC1)N1CCC(Nc2ncc3cc(C(F)F)nc(N4CC5(CCNC5)C4)c3n2)CC1 [Example 46]
6.30 to 6.70	> 6.70	> 6.70	> 6.70	–	–	Cc1cc2cnc(NC3CCN(S(C)(=O)=O)CC3)nc2c(C2CC(O)(C3CC3)C2)n1 (stereo not drawn) [Example 88, 1-cyclopropyl-3-(6-methyl-2-((1-(methylsulfonyl)piperidin-4-yl)amino)pyrido[3,4-d]pyrimidin-8-yl)cyclobutan-1-ol]
